# Like-named read-outs stand apart in the source and are kept apart here.
# What was measured:
# [1] = tested on: Jurkat human T lymphocyte cell line; assay: Apoptosis assay (Annexin V) of compounds incubated with human serum; settings: for EC50: read-out: ED50 (nM) in apoptosis assay after incubation with serum, 37° C.
# Procedure, shortened: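 Test compounds at 20 mM were preincubated in pooled human serum at 37° C for varying times, then serially diluted to final 1–10,000 nM. Jurkat cells (1×10^5 per well) were exposed for 24 h at 37° C, and apoptosis was scored by Annexin V-FITC flow cytometry. ED50 came from dose-response curves, and % conversion was expressed relative to the triptolide ED50 in the same serum.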
# [2] = in vitro; settings: incomplete conversion to triptolide, 48 hr incubation
# Procedure: Compounds of formula I, as shown in Table 1 above and in the Examples, were assayed for their capacity to induce apoptosis in cells from the Jurkat human T lymphocyte cell line, after incubation with pooled human serum for varying periods of time at 37° C. (see Example 19). An ester prodrug, triptolide-14-succinate, designated PG490-88, was included for comparison. The extent of conversion to triptolide after such incubation was also independently determined by HPLC analysis.
# Prodrug conversions to triptolide as determined independently by HPLC are given in […].
# [3] = Table 3, human serum, 0 hr, 10000 nM
# [4] = Table 3, human serum, 48 hr, 1 nM
# [5] = Table 3, human serum, 48 hr, 3 nM
# [6] = Table 3, human serum, 48 hr, 10 nM
# [7] = Table 3, human serum, 48 hr, 30 nM
# [8] = Table 3, human serum, 48 hr, 100 nM
# [9] = Table 3, human serum, 48 hr, 300 nM
# [10] = Table 3, human serum, 48 hr, 1000 nM
# [11] = Table 3, human serum, 48 hr, 3000 nM
# [12] = Table 3, human serum, 48 hr, 10000 nM
# [13] = Table 4, serum, 48 hr, 10000 nM
# [14] = Table 5, human serum (48 hrs), 1 nM
# [15] = Table 5, human serum (48 hrs), 3 nM
# [16] = Table 5, human serum (48 hrs), 10 nM
# [17] = Table 5, human serum (48 hrs), 30 nM
# [18] = Table 5, human serum (48 hrs), 100 nM
# [19] = Table 5, human serum (48 hrs), 300 nM
# [20] = Table 5, human serum (48 hrs), 1000 nM
# [21] = Table 5, human serum (48 hrs), 3000 nM
# [22] = incubation time in human serum 0.5 hours
# [23] = incubation time in human serum 1 hour
# [24] = incubation time in human serum 24 hours
# [25] = incubation time in human serum 48 hours
# [26] = after 48 hr. incubation in human serum
compound,measurement,setting,value
"CC(C)[C@]12O[C@H]1[C@@H]1O[C@]13[C@]1(O[C@H]1C[C@H]1C4=C(CC[C@@]13C)C(=O)OC4)[C@@H]2OC(=O)CCC(=O)O [PG490-88, triptolide-14-succinate, reference compound]",% apoptotic cells at given concentration (nM),[1]; [3],89.2%
same,% apoptotic cells at given concentration (nM),[1]; [4],7.8%
same,% apoptotic cells at given concentration (nM),[1]; [5],8.1%
same,% apoptotic cells at given concentration (nM),[1]; [6],7.8%
same,% apoptotic cells at given concentration (nM),[1]; [7],9.1%
same,% apoptotic cells at given concentration (nM),[1]; [8],51.5%
same,% apoptotic cells at given concentration (nM),[1]; [9],92.1%
same,% apoptotic cells at given concentration (nM),[1]; [10],93.9%
same,% apoptotic cells at given concentration (nM),[1]; [11],94.1%
same,% apoptotic cells at given concentration (nM),[1]; [12],95.1%
same,% apoptotic cells at given concentration (nM),"[1]; Table 3, medium only, 10000 nM",93.8%
same,% apoptotic cells at given concentration (nM),"[1]; Table 4, medium, 10000 nM",89.7%
same,% apoptotic cells at given concentration (nM),"[1]; Table 4, serum, 0 hr, 10000 nM",82.9%
same,% apoptotic cells at given concentration (nM),"[1]; Table 4, serum, 48 hr, 0.03 nM",6.6%
same,% apoptotic cells at given concentration (nM),"[1]; Table 4, serum, 48 hr, 0.1 nM",6.5%
same,% apoptotic cells at given concentration (nM),"[1]; Table 4, serum, 48 hr, 0.3 nM",7.0%
same,% apoptotic cells at given concentration (nM),"[1]; Table 4, serum, 48 hr, 1 nM",6.0%
same,% apoptotic cells at given concentration (nM),"[1]; Table 4, serum, 48 hr, 3 nM",6.2%
same,% apoptotic cells at given concentration (nM),"[1]; Table 4, serum, 48 hr, 10 nM",6.2%
same,% apoptotic cells at given concentration (nM),"[1]; Table 4, serum, 48 hr, 30 nM",6.8%
same,% apoptotic cells at given concentration (nM),"[1]; Table 4, serum, 48 hr, 100 nM",30.5%
same,% apoptotic cells at given concentration (nM),"[1]; Table 4, serum, 48 hr, 300 nM",89.6%
same,% apoptotic cells at given concentration (nM),"[1]; Table 4, serum, 48 hr, 1000 nM",92.6%
same,% apoptotic cells at given concentration (nM),"[1]; Table 4, serum, 48 hr, 3000 nM",92.8%
same,% apoptotic cells at given concentration (nM),[1]; [13],93.9%
same,% apoptotic cells at given concentration (nM),[1]; [14],8.6%
same,% apoptotic cells at given concentration (nM),[1]; [15],9.3%
same,% apoptotic cells at given concentration (nM),[1]; [16],8.7%
same,% apoptotic cells at given concentration (nM),[1]; [17],7.8%
same,% apoptotic cells at given concentration (nM),[1]; [18],23.3%
same,% apoptotic cells at given concentration (nM),[1]; [19],88.4%
same,% apoptotic cells at given concentration (nM),[1]; [20],90.5%
same,% apoptotic cells at given concentration (nM),[1]; [21],91.7%
same,% apoptotic cells at given concentration (nM),"[1]; Table 5, medium, 3000 nM",64.8%
same,"Conversion, as relative ED50 compared to triptolide (%)",[1]; [22],2%
same,"Conversion, as relative ED50 compared to triptolide (%)",[1]; [23],2%
same,"Conversion, as relative ED50 compared to triptolide (%)",[1]; [24],18%
same,"Conversion, as relative ED50 compared to triptolide (%)",[1]; [25],43%
same,EC50,[1]; [22],2580 nM
same,EC50,[1]; [23],2270 nM
same,EC50,[1]; [24],328 nM
same,EC50,[1]; [25],147 nM
same,max. conversion at 48 hr in human plasma by HPLC,[2],max. 26%
"CCNC(=O)O[C@@H]1[C@@]2(C(C)C)O[C@H]2[C@@H]2O[C@]23[C@]12O[C@H]2C[C@H]1C2=C(CC[C@@]13C)C(=O)OC2 [PG666, Triptolide 14-Ethyl Carbamate]",% apoptotic cells at given concentration (nM),[1]; [3],93.6%
same,% apoptotic cells at given concentration (nM),[1]; [4],13.4%
same,% apoptotic cells at given concentration (nM),[1]; [5],14.4%
same,% apoptotic cells at given concentration (nM),[1]; [6],14.0%
same,% apoptotic cells at given concentration (nM),[1]; [7],10.1%
same,% apoptotic cells at given concentration (nM),[1]; [8],11.0%
same,% apoptotic cells at given concentration (nM),[1]; [9],20.6%
same,% apoptotic cells at given concentration (nM),[1]; [10],91.0%
same,% apoptotic cells at given concentration (nM),[1]; [11],92.9%
same,% apoptotic cells at given concentration (nM),[1]; [12],93.5%
same,% apoptotic cells at given concentration (nM),"[1]; Table 3, medium only, 10000 nM",94.3%
same,% apoptotic cells at given concentration (nM),"[1]; Table 4, medium, 10000 nM",92.6%
same,% apoptotic cells at given concentration (nM),"[1]; Table 4, serum, 0 hr, 10000 nM",87.2%
same,% apoptotic cells at given concentration (nM),"[1]; Table 4, serum, 48 hr, 0.03 nM",39.9%
same,% apoptotic cells at given concentration (nM),"[1]; Table 4, serum, 48 hr, 0.1 nM",40.7%
same,% apoptotic cells at given concentration (nM),"[1]; Table 4, serum, 48 hr, 0.3 nM",40.8%
same,% apoptotic cells at given concentration (nM),"[1]; Table 4, serum, 48 hr, 1 nM",41.3%
same,% apoptotic cells at given concentration (nM),"[1]; Table 4, serum, 48 hr, 3 nM",39.8%
same,% apoptotic cells at given concentration (nM),"[1]; Table 4, serum, 48 hr, 10 nM",39.8%
same,% apoptotic cells at given concentration (nM),"[1]; Table 4, serum, 48 hr, 30 nM",39.1%
same,% apoptotic cells at given concentration (nM),"[1]; Table 4, serum, 48 hr, 100 nM",40.2%
same,% apoptotic cells at given concentration (nM),"[1]; Table 4, serum, 48 hr, 300 nM",44.5%
same,% apoptotic cells at given concentration (nM),"[1]; Table 4, serum, 48 hr, 1000 nM",88.6%
same,% apoptotic cells at given concentration (nM),"[1]; Table 4, serum, 48 hr, 3000 nM",96.8%
same,% apoptotic cells at given concentration (nM),[1]; [13],92.3%
same,% apoptotic cells at given concentration (nM),[1]; [14],9.8%
same,% apoptotic cells at given concentration (nM),[1]; [15],10.9%
same,% apoptotic cells at given concentration (nM),[1]; [16],10.4%
same,% apoptotic cells at given concentration (nM),[1]; [17],10.2%
same,% apoptotic cells at given concentration (nM),[1]; [18],9.5%
same,% apoptotic cells at given concentration (nM),[1]; [19],14.9%
same,% apoptotic cells at given concentration (nM),[1]; [20],87.7%
same,% apoptotic cells at given concentration (nM),[1]; [21],91.0%
same,% apoptotic cells at given concentration (nM),"[1]; Table 5, medium, 1 nM",13.9%
same,% apoptotic cells at given concentration (nM),"[1]; Table 5, medium, 3 nM",13.1%
same,% apoptotic cells at given concentration (nM),"[1]; Table 5, medium, 10 nM",13.4%
same,% apoptotic cells at given concentration (nM),"[1]; Table 5, medium, 30 nM",13.0%
same,% apoptotic cells at given concentration (nM),"[1]; Table 5, medium, 100 nM",13.2%
same,% apoptotic cells at given concentration (nM),"[1]; Table 5, medium, 300 nM",14.2%
same,% apoptotic cells at given concentration (nM),"[1]; Table 5, medium, 1000 nM",14.1%
same,% apoptotic cells at given concentration (nM),"[1]; Table 5, medium, 3000 nM",92.1%
same,apoptotic activity (in words),[1]; [26],more active than PG688
same,concentration for equal apoptotic activity relative to PG490 (triptolide),[1]; [26],~10 fold
"CC(C)[C@]12O[C@H]1[C@@H]1O[C@]13[C@]1(O[C@H]1C[C@H]1C4=C(CC[C@@]13C)C(=O)OC4)[C@@H]2O [PG490, Triptolide]",% apoptotic cells at given concentration (nM),[1]; [3],94.9%
same,% apoptotic cells at given concentration (nM),[1]; [4],8.5%
same,% apoptotic cells at given concentration (nM),[1]; [5],8.5%
same,% apoptotic cells at given concentration (nM),[1]; [6],8.5%
same,% apoptotic cells at given concentration (nM),[1]; [7],26.2%
same,% apoptotic cells at given concentration (nM),[1]; [8],91.7%
same,% apoptotic cells at given concentration (nM),[1]; [9],93.4%
same,% apoptotic cells at given concentration (nM),[1]; [10],94.6%
same,% apoptotic cells at given concentration (nM),[1]; [11],95.2%
same,% apoptotic cells at given concentration (nM),[1]; [12],95.4%
same,% apoptotic cells at given concentration (nM),"[1]; Table 3, medium only, 10000 nM",96.5%
same,% apoptotic cells at given concentration (nM),"[1]; Table 4, medium, 10000 nM",93.4%
same,% apoptotic cells at given concentration (nM),"[1]; Table 4, serum, 0 hr, 10000 nM",92.1%
same,% apoptotic cells at given concentration (nM),"[1]; Table 4, serum, 48 hr, 0.03 nM",7.0%
same,% apoptotic cells at given concentration (nM),"[1]; Table 4, serum, 48 hr, 0.1 nM",6.9%
same,% apoptotic cells at given concentration (nM),"[1]; Table 4, serum, 48 hr, 0.3 nM",6.8%
same,% apoptotic cells at given concentration (nM),"[1]; Table 4, serum, 48 hr, 1 nM",6.4%
same,% apoptotic cells at given concentration (nM),"[1]; Table 4, serum, 48 hr, 3 nM",7.0%
same,% apoptotic cells at given concentration (nM),"[1]; Table 4, serum, 48 hr, 10 nM",7.1%
same,% apoptotic cells at given concentration (nM),"[1]; Table 4, serum, 48 hr, 30 nM",29.4%
same,% apoptotic cells at given concentration (nM),"[1]; Table 4, serum, 48 hr, 100 nM",90.9%
same,% apoptotic cells at given concentration (nM),"[1]; Table 4, serum, 48 hr, 300 nM",93.0%
same,% apoptotic cells at given concentration (nM),"[1]; Table 4, serum, 48 hr, 1000 nM",93.2%
same,% apoptotic cells at given concentration (nM),"[1]; Table 4, serum, 48 hr, 3000 nM",94.6%
same,% apoptotic cells at given concentration (nM),[1]; [13],94.2%
same,% apoptotic cells at given concentration (nM),[1]; [14],8.8%
same,% apoptotic cells at given concentration (nM),[1]; [15],8.5%
same,% apoptotic cells at given concentration (nM),[1]; [16],8.6%
same,% apoptotic cells at given concentration (nM),[1]; [17],15.9%
same,% apoptotic cells at given concentration (nM),[1]; [18],86.5%
same,% apoptotic cells at given concentration (nM),[1]; [19],90.7%
same,% apoptotic cells at given concentration (nM),[1]; [20],91.7%
same,% apoptotic cells at given concentration (nM),[1]; [21],93.1%
same,% apoptotic cells at given concentration (nM),"[1]; Table 5, medium, 3000 nM",93.7%
